Laboratory results taken from patent US8440710B2, “HSL inhibitors useful in the treatment of diabetes” (Hoffmann-La Roche Inc., priority 2009, dated 2013).

target: T1, human HSL (Homo sapiens, UniProt Q05469); assay: Human Hormone-Sensitive Lipase (HSL) enzyme inhibition assay (colorimetric, DMPT substrate); type: biochemical; conditions: human full length HSL-His6, 2,3-dimercapto-1-propanol tributyrate substrate, 37° C. 20 minutes, absorbance at 405 nm; read-out: HSL hum IC50
T1 construct: generate a full length human HSL ORF with a 3′-His6 tag; made in house; host or cells: High 5 insect cells (baculovirus, pFast-BAC)
T1 sequence (Q05469 1-1076): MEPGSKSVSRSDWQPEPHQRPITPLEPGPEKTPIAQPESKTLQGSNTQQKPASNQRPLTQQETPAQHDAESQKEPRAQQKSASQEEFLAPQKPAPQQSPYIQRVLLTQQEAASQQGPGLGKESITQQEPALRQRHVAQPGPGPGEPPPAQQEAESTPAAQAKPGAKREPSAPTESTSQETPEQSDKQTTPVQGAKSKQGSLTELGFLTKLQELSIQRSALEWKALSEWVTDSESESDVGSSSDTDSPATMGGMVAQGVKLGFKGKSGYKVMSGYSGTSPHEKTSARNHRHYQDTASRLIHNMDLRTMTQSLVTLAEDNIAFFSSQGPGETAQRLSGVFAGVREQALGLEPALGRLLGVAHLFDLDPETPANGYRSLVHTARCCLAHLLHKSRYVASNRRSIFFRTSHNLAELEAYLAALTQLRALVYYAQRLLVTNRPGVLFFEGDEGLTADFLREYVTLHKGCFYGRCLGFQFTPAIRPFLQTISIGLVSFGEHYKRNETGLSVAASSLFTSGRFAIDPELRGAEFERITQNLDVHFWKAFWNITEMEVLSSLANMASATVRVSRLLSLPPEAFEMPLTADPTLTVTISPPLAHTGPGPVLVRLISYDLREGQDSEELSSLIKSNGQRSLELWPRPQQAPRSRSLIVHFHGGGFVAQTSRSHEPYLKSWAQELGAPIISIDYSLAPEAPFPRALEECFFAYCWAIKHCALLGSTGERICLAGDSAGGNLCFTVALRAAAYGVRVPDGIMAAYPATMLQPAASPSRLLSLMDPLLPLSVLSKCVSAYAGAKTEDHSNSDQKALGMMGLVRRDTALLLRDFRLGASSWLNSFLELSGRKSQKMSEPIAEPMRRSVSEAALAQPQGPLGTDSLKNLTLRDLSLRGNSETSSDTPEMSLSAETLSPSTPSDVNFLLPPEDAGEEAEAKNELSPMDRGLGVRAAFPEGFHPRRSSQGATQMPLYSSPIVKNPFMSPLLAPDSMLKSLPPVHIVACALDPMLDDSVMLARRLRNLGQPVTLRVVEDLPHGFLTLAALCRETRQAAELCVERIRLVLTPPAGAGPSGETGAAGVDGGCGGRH
Procedure: Production of Human Full Length Hormone Sensitive Lipase-His^6:
1) Cloning: cDNA was prepared from commercial human brain polyA+ RNA and used as a template in overlapping PCR to generate a full length human HSL ORF with a 3′-His6 tag. This full length insert was cloned into the pFast-BAC vector and the DNA-sequence of several single clones was verified. DNA from a correct full length clone with the 3′His6 tag was used to transform the E. coli strain DH10BAC. Resulting bacmid DNA was used to generate a titered baculovirus stock for protein generation. The sequence of the encoded HSL conforms to Swissprot entry Q05469, with the additional C-terminal His6-tag. 2) Protein purification: Culture: 5.5 L, High 5 cells expressing human full length HSL-His^6, 48 hr., containing 25 μM E-64. Cell count: […], 90% viable. Cells were thawed. On ice, cells were suspended in Base Buffer containing 10% glycerol, 25 mM Tris-Cl, 300 mM NaCl, 10 mM imidazole, 10 mM 2-mercaptoethanol, 2 μg pepstatin/ml, 2 μg leupeptin/ml, 2 μg antipain/ml, pH 8.0 at 4° C. in a final volume of 475 ml with 3.75×10^7 cells/ml. […] was done at 3×30 sec., Lubrol PX was added to 0.2% final concentration followed by stirring for 15 min. at 4° C. and centrifugation at 25 k×g, 60 min., 4° C. Soluble proteins were mixed with 60 ml of pre-washed and equilibrated Ni-NTA Agarose (Qiagen 30210) followed by tumbling end-over-end, 45 min., 4° C., centrifugation 1000 rpm 5 min and letting resin settle 5 min. Supernatant was removed, the resin washed in the centrifuge vessel using 5 volumes of Base Buffer containing 0.2% Lubrol PX. Centrifugation was done again, then the supernatant discarded. The resin was poured onto a 0.8 μm membrane in a disposable filter unit (Nalge 450-0080), and washed with 5 volumes of Base Buffer containing 0.2% Lubrol PX. It was then washed with 30 volumes of Base Buffer containing 60 mM imidazole pH 7.5 at 4° C. The protein was eluated with 5 volumes of 25 mM Tris-Cl, 300 mM NaCl, 200 mM imidazole, 10 mM 2-mercaptoethanol, pH 7.5 at 4° C. by tumbling resin with buffer end-over-end, 30 min., 4° C. The resin was captured on a 0.2 μm membrane disposable filter unit (Millipore SCGP U02 RE) and the eluate collected in the reservoir. The eluate was concentrated using a 30 k MWCO centrifugal filter device (Sartorius Vivascience Vivacell 100, VC1022), to 20 ml. It was then dialyzed overnight at 4° C., two times against 2 L of 10% glycerol, 25 mM Tris-Cl, 300 mM NaCl, 0.2 mM EDTA, 0.2 mM DTT, pH 7.5 at 4° C. The protein was filtered using a 0.22 μm disposable filter unit (Millipore SCGP00525). The protein concentration was calculated from absorbance at 280 nm, using 280=0.67 cm-1 mg-1. Yield was 235 mg, total. The protein was stored at −80° C. Human Hormone-Sensitive Lipase (HSL) Enzyme Inhibition Assay:
HSL enzyme activity was measured by a colorimetric assay using 2,3-dimercapto-1-propanol tributyrate (Aldrich, St. Louis, Mo.) as a substrate. Typically, 1.5 mM 2,3-dimercapto-1-propanol tributyrate (DMPT) in 100 mM MOPS, pH 7.2, 0.2 mg/ml fatty acid-free BSA was prepared by sonication at 4° C. to homogenous suspension. Test compounds (2 mM stock in DMSO) were diluted 3 fold in series in DMSO. Compound solutions were diluted 24 fold in 1.5 mM DMPT containing solution and 18 ul per well was added to 384-well microplates (Corning Costar). Twelve microliters per well of human HSL (15 ug/ml) was added and the reaction mixture was incubated at 37° C. for 20 minutes. Six microliters of 12 mM dithio-bis-(2-nitrobenzoic acid) (DTNB) in DMSO plus 1.2% SDS and 0.6% Triton X-100 were added and the mixture was incubated at room temperature for 15 minutes. Product production was monitored by reading absorbance at 405 nm on an Envision Reader (PerkinElmer Life and Analytical Sciences, Shelton, Conn.).

Row | SMILES | IC50 [nM]
1 | CCC(O)[C@H]1CC[C@]2(CCN(c3ccc(O[C@H](C)C(F)(F)F)cc3)C2=O)CC1 (stereo partly drawn) [Example 366, (5α,8α)-8-(1-Hydroxy-propyl)-2-[4-((R)-2,2,2-trifluoro-1-methyl-ethoxy)-phenyl]-2-aza-spiro[4.5]decan-1-one] | 290
2 | CC(C)c1ccc(N2CC[C@]3(CC[C@@](O)(COCC(F)(F)F)CC3)C2=O)cc1 [Example 216, (5α,8α)-8-hydroxy-2-(4-isopropylphenyl)-8-((2,2,2-trifluoroethoxy)methyl)-2-aza-spiro[4.5]decan-1-one] | 10
3 | CC(C)C(O)[C@H]1CC[C@@]2(CCN(c3ccc(C(C)(C)C)cc3)C2=O)CC1 (stereo partly drawn) [Example 355, (5α,8β)-2-(4-tert-Butyl-phenyl)-8-(1-hydroxy-2-methyl-propyl)-2-aza-spiro[4.5]decan-1-one] | 50
4 | CC(C)c1ccc(N2CC[C@]3(CC[C@@](O)(C(C)C)CC3)C2=O)cc1 [Example 203, (5α,8α)-8-hydroxy-8-isopropyl-2-(4-isopropylphenyl)-2-aza-spiro[4.5]decan-1-one] | 10
5 | CC(C)(O)CNC(=O)O[C@H]1CC[C@@]2(CCN(c3ccc(OC(F)(F)F)cc3)C2=O)CC1 [Example 26, (2-Hydroxy-2-methyl-propyl)-carbamic acid [(5α,8β)-1-oxo-2-(4-trifluoromethoxy-phenyl)-2-aza-spiro[4.5]dec-8-yl]ester] | 110
6 | O=C1N(c2ccc(OCC(F)(F)F)cc2)CC[C@]12CC[C@](O)(COc1ccccc1)CC2 [Example 239, (5α,8β)-8-Hydroxy-8-phenoxymethyl-2-[4-(2,2,2-trifluoro-ethoxy)-phenyl]-2-aza-spiro[4.5]decan-1-one] | 140
7 | CC(C)c1ccc(N2CC[C@]3(CC[C@H](O)CC3)C2=O)cc1 [Example 38, (5α,8α)-8-Hydroxy-2-(4-isopropyl-phenyl)-2-aza-spiro[4.5]decan-1-one] | 240
8 | CCC[C@]1(O)CC[C@]2(CCN(c3ccc(S(=O)(=O)CC)cc3)C2=O)CC1 [Example 187, (5α,8α)-2-(4-Ethanesulfonyl-phenyl)-8-hydroxy-8-propyl-2-aza-spiro[4.5]decan-1-one] | 650
9 | COc1ccc(CNC(=O)O[C@H]2CC[C@@]3(CCN(c4ccc(OC(F)(F)F)cc4)C3=O)CC2)cc1 [Example 13, (4-Methoxy-benzyl)-carbamic acid [(5α,8β)-1-oxo-2-(4-trifluoromethoxy-phenyl)-2-aza-spiro[4.5]dec-8-yl]ester] | 90
10 | CC(C)OC[C@]1(O)CC[C@]2(CCN(c3ccc(O[C@H](C)C(F)(F)F)nc3)C2=O)CC1 [Example 316, (5α,8α)-8-Hydroxy-8-isopropoxymethyl-2-[6-((R)-2,2,2-trifluoro-1-methyl-ethoxy)-pyridin-3-yl]-2-aza-spiro[4.5]decan-1-one] | 20
11 | CCc1ccc(CCN2CC[C@]3(CC[C@@](O)(COC(C)C)CC3)C2=O)cc1 [Example 375, (5α,8α)-2-[2-(4-Ethyl-phenyl)-ethyl]-8-hydroxy-8-isopropoxymethyl-2-aza-spiro[4.5]decan-1-one] | 14.2
12 | COCCc1ccc(N2CC[C@]3(CC[C@@](O)(CC(C)C)CC3)C2=O)cc1 [Example 124, (5α,8α)-8-Hydroxy-8-isobutyl-2-[4-(2-methoxy-ethyl)-phenyl]-2-aza-spiro[4.5]decan-1-one] | 20
13 | C[C@H](Oc1ccc(N2CC[C@]3(CC[C@@](O)(C(F)(F)F)CC3)C2=O)cn1)C(F)(F)F [Example 173, (5α,8α)-8-Hydroxy-8-trifluoromethyl-2-[6-((S)-2,2,2-trifluoro-1-methyl-ethoxy)-pyridin-3-yl]-2-aza-spiro[4.5]decan-1-one] | 50
14 | NC(=O)O[C@H]1CC[C@@]2(CCN(c3ccc(OC(F)(F)F)cc3)C2=O)CC1 [Example 30, Carbamic acid [(5α,8β)-1-oxo-2-(4-trifluoromethoxy-phenyl)-2-aza-spiro[4.5]dec-8-yl]ester] | 250
15 | CC(C)C[C@]1(O)CC[C@]2(CCN(c3ccc(OC(C)C)cc3)C2=O)CC1 [Example 199, (5α,8α)-8-hydroxy-8-isobutyl-2-(4-isopropoxyphenyl)-2-aza-spiro[4.5]decan-1-one] | 10
16 | O=C1N(c2ccc(OCC(F)(F)F)cc2)CC[C@]12CC[C@](O)(COCC(F)(F)F)CC2 [Example 232, (5α,8β)-8-Hydroxy-8-(2,2,2-trifluoro-ethoxymethyl)-2-[4-(2,2,2-trifluoro-ethoxy)-phenyl]-2-aza-spiro[4.5]decan-1-one] | 290
17 | CCC[C@]1(O)CC[C@]2(CCN(c3ccc(C(O)C(C)(F)F)cc3)C2=O)CC1 (stereo partly drawn) [Example 192, (5α,8α)-2-(4-(2,2-difluoro-1-hydroxypropyl)phenyl)-8-hydroxy-8-propyl-2-aza-spiro[4.5]decan-1-one] | 50
18 | CCOC[C@]1(O)CC[C@]2(CCN(c3ccc(OCC(F)(F)F)cc3)C2=O)CC1 [Example 234, (5α,8α)-8-Ethoxymethyl-8-hydroxy-2-[4-(2,2,2-trifluoro-ethoxy)phenyl]-2-aza-spiro[4.5]decan-1-one] | 40
19 | CCCO[C@H]1CC[C@]2(CCN(c3ccc(OC(F)(F)F)cc3)C2=O)CC1 [Example 42, (5α,8α)-8-Propoxy-2-(4-trifluoromethoxy-phenyl)-2-aza-spiro[4.5]decan-1-one] | 320
20 | CCOC[C@]1(O)CC[C@@]2(CCN(c3ccc(O[C@@H](C)C(F)(F)F)nc3)C2=O)CC1 [Example 248, (5α,8β)-8-Ethoxymethyl-8-hydroxy-2-[6-((S)-2,2,2-trifluoro-1-methyl-ethoxy)-pyridin-3-yl]-2-aza-spiro[4.5]decan-1-one] | 340
